Assay results: ChEMBL document CHEMBL1154879, “Discovery of (thienopyrimidin-2-yl)aminopyrimidines as potent, selective, and orally available pan-PI3-kinase and dual pan-PI3-kinase/mTOR inhibitors for the treatment of cancer” (J Med Chem, 2010)
The source made the active and inactive calls. No cut-off for these calls is given here.

What was measured:
[1] = Cmax in Sprague-Dawley rat at 5 mg/kg, po; format: ADME, organism-based; set-up: dose 5 mg/kg, route oral; conditions: in vivo
[2] = Clearance in nu/nu mouse at 1 mg/kg, iv; format: ADME, organism-based; set-up: dose 1 mg/kg, route intravenous; conditions: in vivo
Aurora kinase A = biological target: T1, Aurora kinase A (Homo sapiens, UniProt O14965); assay: Inhibition of Aurora A kinase
T1 sequence (O14965 whole entry): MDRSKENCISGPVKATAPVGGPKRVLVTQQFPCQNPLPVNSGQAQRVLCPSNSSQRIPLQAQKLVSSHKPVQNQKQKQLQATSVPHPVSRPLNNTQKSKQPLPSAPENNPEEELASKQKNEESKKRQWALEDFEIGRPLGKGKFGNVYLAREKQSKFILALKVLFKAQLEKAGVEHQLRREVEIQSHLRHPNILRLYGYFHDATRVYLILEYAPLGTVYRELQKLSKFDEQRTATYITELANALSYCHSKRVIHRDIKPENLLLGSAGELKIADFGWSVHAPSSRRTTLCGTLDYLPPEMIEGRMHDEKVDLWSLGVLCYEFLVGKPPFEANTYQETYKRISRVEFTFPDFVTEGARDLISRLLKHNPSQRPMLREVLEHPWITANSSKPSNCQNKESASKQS

[3] = Antitumor activity against human MCF7.1 cells expressing PI3Kalpha mutant xenografted in nu/nu mouse assessed as inhibition of tumor growth at 10 mg/kg, po qd for 21 days; format: functional; conditions: MCF7.1, 504 h, read-out: TGI
[4] = biological target: Phosphatidylinositol 4-phosphate 3-kinase C2 domain-containing subunit alpha (Homo sapiens) (UniProt O00443); assay: Inhibition of PIK3C2alpha at 1 uM
Phosphatidylinositol 4-phosphate 3-kinase C2 domain-containing subunit alpha (Homo sapiens), sequence (O00443 whole entry, the tested form may be a part): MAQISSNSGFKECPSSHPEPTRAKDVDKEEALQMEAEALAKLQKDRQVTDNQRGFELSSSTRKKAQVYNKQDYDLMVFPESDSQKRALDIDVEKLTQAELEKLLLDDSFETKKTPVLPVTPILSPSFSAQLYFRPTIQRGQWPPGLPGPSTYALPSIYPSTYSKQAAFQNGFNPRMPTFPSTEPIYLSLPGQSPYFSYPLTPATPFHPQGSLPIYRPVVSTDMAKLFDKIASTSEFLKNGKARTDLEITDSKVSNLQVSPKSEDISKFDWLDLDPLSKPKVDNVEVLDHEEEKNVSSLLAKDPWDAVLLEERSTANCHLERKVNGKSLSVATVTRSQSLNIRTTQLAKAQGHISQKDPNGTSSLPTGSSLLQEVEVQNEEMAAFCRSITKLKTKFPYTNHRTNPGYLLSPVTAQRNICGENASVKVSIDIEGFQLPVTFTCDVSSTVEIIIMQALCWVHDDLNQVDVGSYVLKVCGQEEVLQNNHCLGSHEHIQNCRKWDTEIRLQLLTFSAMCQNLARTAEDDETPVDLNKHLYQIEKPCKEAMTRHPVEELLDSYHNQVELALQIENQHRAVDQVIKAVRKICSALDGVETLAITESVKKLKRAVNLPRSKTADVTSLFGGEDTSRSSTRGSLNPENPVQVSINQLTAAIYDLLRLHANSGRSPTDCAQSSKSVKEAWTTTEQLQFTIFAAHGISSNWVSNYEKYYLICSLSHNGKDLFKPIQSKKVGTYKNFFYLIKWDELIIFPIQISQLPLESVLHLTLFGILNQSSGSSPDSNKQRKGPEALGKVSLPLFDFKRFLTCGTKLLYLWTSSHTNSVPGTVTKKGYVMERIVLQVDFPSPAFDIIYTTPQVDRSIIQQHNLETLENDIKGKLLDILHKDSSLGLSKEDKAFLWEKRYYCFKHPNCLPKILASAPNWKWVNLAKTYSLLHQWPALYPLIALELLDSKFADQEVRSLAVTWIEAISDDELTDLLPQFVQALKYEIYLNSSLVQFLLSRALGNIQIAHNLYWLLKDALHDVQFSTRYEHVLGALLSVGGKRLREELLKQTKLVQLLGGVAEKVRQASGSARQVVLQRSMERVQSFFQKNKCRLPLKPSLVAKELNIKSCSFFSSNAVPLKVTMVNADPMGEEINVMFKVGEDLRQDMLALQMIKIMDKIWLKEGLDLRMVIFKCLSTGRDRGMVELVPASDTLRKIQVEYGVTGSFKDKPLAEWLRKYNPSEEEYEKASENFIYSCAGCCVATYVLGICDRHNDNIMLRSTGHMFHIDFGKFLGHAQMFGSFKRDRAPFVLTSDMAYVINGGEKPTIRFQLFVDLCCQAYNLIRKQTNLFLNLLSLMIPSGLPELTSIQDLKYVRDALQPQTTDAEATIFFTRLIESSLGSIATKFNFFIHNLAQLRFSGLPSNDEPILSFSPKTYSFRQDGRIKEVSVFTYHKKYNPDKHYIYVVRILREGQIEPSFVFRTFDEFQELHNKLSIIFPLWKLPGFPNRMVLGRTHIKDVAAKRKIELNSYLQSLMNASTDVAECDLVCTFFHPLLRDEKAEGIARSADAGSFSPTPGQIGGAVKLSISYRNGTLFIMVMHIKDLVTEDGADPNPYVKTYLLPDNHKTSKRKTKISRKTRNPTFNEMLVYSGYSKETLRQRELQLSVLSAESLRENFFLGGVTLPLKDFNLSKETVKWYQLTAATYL

[5] = Protein binding in cynomolgus monkey plasma; format: ADME, cell-free, Macaca fascicularis; conditions: read-out: PPB (converted)
[6] = Protein binding in Beagle dog plasma; format: ADME, cell-free, Canis lupus familiaris; conditions: read-out: PPB (converted)
[7] = Volume of distribution at steady state in cynomolgus monkey at 1 mg/kg, iv; format: ADME, organism-based, Macaca fascicularis; set-up: dose 1 mg/kg, route intravenous; conditions: in vivo, read-out: Vdss
PC-3 [8] = assay: Antitumor activity against human PC3 cells xenografted in nu/nu mouse assessed as inhibition of tumor growth at 10 mg/kg, po qd for 14 days; format: functional; conditions: PC-3, 336 h, read-out: TGI
[9] = AUC in Beagle dog at 2 mg/kg, po; format: ADME, organism-based, Canis lupus familiaris; set-up: dose 2 mg/kg, route oral; conditions: plasma
[10] = biological target: Phosphatidylinositol 4-phosphate 3-kinase C2 domain-containing subunit beta (Homo sapiens) (UniProt O00750); assay: Inhibition of PIK3C2beta at 1 uM
[11] = biological target: Serine/threonine-protein kinase mTOR (Homo sapiens, UniProt P42345)
[12] = Oral bioavailability in nu/nu mouse at 5 mg/kg, po; format: ADME, organism-based; conditions: in vivo
[13] = Volume of distribution at steady state in Sprague-Dawley rat at 1 mg/kg, iv; format: ADME, organism-based; set-up: dose 1 mg/kg, route intravenous; conditions: in vivo, read-out: Vdss
[14] = biological target: Phosphatidylinositol 3-kinase catalytic subunit type 3 (Homo sapiens) (UniProt Q8NEB9); assay: Inhibition of VPS34 at 1 uM
Phosphatidylinositol 3-kinase catalytic subunit type 3 (Homo sapiens), sequence (Q8NEB9 whole entry): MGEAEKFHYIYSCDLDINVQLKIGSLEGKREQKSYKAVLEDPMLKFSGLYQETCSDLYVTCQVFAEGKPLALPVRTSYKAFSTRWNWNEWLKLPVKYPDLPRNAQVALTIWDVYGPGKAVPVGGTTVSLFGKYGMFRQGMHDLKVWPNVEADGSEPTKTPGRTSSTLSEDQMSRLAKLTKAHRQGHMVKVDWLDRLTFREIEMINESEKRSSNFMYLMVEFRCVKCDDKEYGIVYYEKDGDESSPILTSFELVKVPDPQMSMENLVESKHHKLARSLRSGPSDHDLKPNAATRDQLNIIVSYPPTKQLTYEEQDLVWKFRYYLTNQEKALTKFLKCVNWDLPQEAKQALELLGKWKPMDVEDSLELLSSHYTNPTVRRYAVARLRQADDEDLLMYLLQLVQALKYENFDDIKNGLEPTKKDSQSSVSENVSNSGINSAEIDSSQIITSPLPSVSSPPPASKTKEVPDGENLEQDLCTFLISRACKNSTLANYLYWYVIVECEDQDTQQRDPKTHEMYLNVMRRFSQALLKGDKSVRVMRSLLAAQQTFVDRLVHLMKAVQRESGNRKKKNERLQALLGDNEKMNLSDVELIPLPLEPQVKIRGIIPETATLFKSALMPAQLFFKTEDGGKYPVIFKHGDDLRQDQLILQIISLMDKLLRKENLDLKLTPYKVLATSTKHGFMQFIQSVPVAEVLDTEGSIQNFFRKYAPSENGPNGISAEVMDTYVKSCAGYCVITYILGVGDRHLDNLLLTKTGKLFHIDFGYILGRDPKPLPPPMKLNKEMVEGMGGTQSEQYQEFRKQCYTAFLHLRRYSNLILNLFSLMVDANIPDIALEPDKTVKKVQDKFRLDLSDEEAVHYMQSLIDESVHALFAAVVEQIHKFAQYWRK

PC-3 [15] = assay: Antitumor activity against human PC3 cells xenografted in nu/nu mouse assessed as reduction of tumor volume at 10 mg/kg, po qd for 14 days; format: functional; set-up: scale not given: the % may be the effect or the level left
[16] = Half life in nu/nu mouse at 5 mg/kg, po; format: ADME, organism-based; set-up: dose 5 mg/kg, route oral; conditions: in vivo
[17] = AUC in cynomolgus monkey at 2 mg/kg, po; format: ADME, organism-based, Macaca fascicularis; set-up: dose 2 mg/kg, route oral; conditions: plasma
[18] = Oral bioavailability in Sprague-Dawley rat at 5 mg/kg, po; format: ADME, organism-based; conditions: in vivo
[19] = Clearance in Sprague-Dawley rat at 1 mg/kg, iv; format: ADME, organism-based; set-up: dose 1 mg/kg, route intravenous; conditions: in vivo
[20] = AUC in Sprague-Dawley rat at 5 mg/kg, po; format: ADME, organism-based; set-up: dose 5 mg/kg, route oral; conditions: plasma
[21] = Volume of distribution at steady state in nu/nu mouse at 1 mg/kg, iv; format: ADME, organism-based; set-up: dose 1 mg/kg, route intravenous; conditions: in vivo, read-out: Vdss
Mus musculus [22] = assay: Toxicity in human MCF7.1 cells expressing PI3Kalpha mutant xenografted nu/nu mouse assessed as body weight loss at 10 mg/kg, po qd for 21 days; format: organism-based; set-up: dose 10 mg/kg, route oral; conditions: in vivo, 504 h
Mus musculus [23] = assay: Toxicity in human PC3 cells xenografted nu/nu mouse assessed as body weight loss at 10 mg/kg, po qd for 14 days; format: organism-based, PC-3; set-up: dose 10 mg/kg, route oral; conditions: in vivo, 336 h
Mus musculus [24] = assay: Inhibition of PI3K/Akt/mTOR pathway signaling in PI3Kalpha mutant expressing human MCF7.1 cells xenografted nu/nu mouse assessed as inhibition of Akt Ser473 phosphorylation at 10 mg/kg, po qd for 21 days measured 4 hrs after last administered dose on day 21 by electrochemiluminescence assay; format: functional
[25] = Cmax in cynomolgus monkey at 2 mg/kg, po; format: ADME, organism-based, Macaca fascicularis; set-up: dose 2 mg/kg, route oral; conditions: in vivo
[26] = Oral bioavailability in cynomolgus monkey at 2 mg/kg, po; format: ADME, organism-based, Macaca fascicularis; conditions: in vivo
[27] = Clearance in Beagle dog at 1 mg/kg, iv; format: ADME, organism-based, Canis lupus familiaris; set-up: dose 1 mg/kg, route intravenous; conditions: in vivo
[28] = Clearance in cynomolgus monkey at 1 mg/kg, iv; format: ADME, organism-based, Macaca fascicularis; set-up: dose 1 mg/kg, route intravenous; conditions: in vivo
Mus musculus [29] = assay: Inhibition of PI3K/Akt/mTOR pathway signaling in PI3Kalpha mutant expressing human MCF7.1 cells xenografted nu/nu mouse assessed as inhibition of Pras40 Thr246 phosphorylation at 10 mg/kg, po qd for 21 days measured 1 hr after last administered dose on day 21 by ELISA; format: functional
Mus musculus [30] = assay: Toxicity in human PC3 cells xenografted nu/nu mouse assessed as body weight loss at 1 mg/kg, po qd for 14 days; format: organism-based, PC-3; set-up: dose 1 mg/kg, route oral; conditions: in vivo, 336 h
Mus musculus [31] = assay: Inhibition of PI3K/Akt/mTOR pathway signaling in PI3Kalpha mutant expressing human MCF7.1 cells xenografted nu/nu mouse assessed as inhibition of Akt Ser473 phosphorylation at 10 mg/kg, po qd for 21 days measured 1 hr after last administered dose on day 21 by electrochemiluminescence assay; format: functional
[32] = Oral bioavailability in Beagle dog at 2 mg/kg, po; format: ADME, organism-based, Canis lupus familiaris; conditions: in vivo
[33] = biological target: Phosphatidylinositol 4-kinase beta (Homo sapiens) (UniProt Q9UBF8); assay: Inhibition of PI4Kbeta at 1 uM
Phosphatidylinositol 4-kinase beta (Homo sapiens), sequence (Q9UBF8 2-816 limits assumed): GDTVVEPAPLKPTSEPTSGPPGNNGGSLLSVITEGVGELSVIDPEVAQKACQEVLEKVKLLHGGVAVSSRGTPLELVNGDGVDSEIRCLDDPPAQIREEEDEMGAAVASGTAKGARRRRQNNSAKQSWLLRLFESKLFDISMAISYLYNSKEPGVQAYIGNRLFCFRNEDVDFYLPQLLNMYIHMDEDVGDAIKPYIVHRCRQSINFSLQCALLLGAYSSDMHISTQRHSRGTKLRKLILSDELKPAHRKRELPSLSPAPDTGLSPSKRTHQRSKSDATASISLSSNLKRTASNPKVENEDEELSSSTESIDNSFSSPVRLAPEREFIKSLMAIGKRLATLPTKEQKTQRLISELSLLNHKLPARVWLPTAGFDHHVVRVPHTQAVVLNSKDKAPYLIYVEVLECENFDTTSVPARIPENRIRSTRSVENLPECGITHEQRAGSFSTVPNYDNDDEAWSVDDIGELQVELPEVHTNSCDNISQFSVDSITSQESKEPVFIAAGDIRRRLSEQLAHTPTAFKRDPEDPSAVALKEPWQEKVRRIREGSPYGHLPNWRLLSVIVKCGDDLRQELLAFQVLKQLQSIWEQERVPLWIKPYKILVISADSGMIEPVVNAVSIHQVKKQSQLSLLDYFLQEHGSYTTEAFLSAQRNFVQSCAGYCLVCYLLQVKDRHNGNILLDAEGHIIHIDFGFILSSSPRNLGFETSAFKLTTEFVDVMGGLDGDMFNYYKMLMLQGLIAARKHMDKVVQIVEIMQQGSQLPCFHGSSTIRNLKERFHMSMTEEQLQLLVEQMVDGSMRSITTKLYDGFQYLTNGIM

Mus musculus [34] = assay: Inhibition of PI3K/Akt/mTOR pathway signaling in PI3Kalpha mutant expressing human MCF7.1 cells xenografted nu/nu mouse assessed as inhibition of S6RP Ser235/236 phosphorylation at 10 mg/kg, po qd for 21 days measured 4 hrs after last administered dose on day 21 by electrochemiluminescence assay; format: functional
[35] = Clearance in Sprague-Dawley rat liver microsomes; format: ADME, Microsome
[36] = Volume of distribution at steady state in Beagle dog at 1 mg/kg, iv; format: ADME, organism-based, Canis lupus familiaris; set-up: dose 1 mg/kg, route intravenous; conditions: in vivo, read-out: Vdss
Mus musculus [37] = assay: Inhibition of PI3K/Akt/mTOR pathway signaling in PI3Kalpha mutant expressing human MCF7.1 cells xenografted nu/nu mouse assessed as inhibition of Pras40 Thr246 phosphorylation at 10 mg/kg, po qd for 21 days measured 4 hrs after last administered dose on day 21 by ELISA; format: functional
Mus musculus [38] = assay: Inhibition of PI3K/Akt/mTOR pathway signaling in PI3Kalpha mutant expressing human MCF7.1 cells xenografted nu/nu mouse assessed as inhibition of S6RP Ser235/236 phosphorylation at 10 mg/kg, po qd for 21 days measured 1 hr after last administered dose on day 21 by electrochemiluminescence assay; format: functional
[39] = biological target: Tyrosine-protein kinase SYK (Homo sapiens, UniProt P43405); assay: Inhibition of SYK
[40] = Protein binding in mouse plasma; format: ADME, cell-free; conditions: read-out: PPB (converted)
PC-3 [41] = assay: Antiproliferative activity against human PC3 cells deficient in PTEN in after 3 to 4 days; format: functional, cell-based
[42] = AUC in nu/nu mouse at 5 mg/kg, po; format: ADME, organism-based; set-up: dose 5 mg/kg, route oral; conditions: plasma
PC-3 [43] = assay: Antitumor activity against human PC3 cells xenografted in nu/nu mouse assessed as inhibition of tumor growth at 1 mg/kg, po qd for 14 days; format: functional, organism-based; set-up: dose 1 mg/kg
[44] = Oral bioavailability in Sprague-Dawley rat at 2 mg/kg; format: ADME, organism-based; conditions: in vivo
[45] = biological target: Mitogen-activated protein kinase kinase kinase 9 (Homo sapiens, UniProt P80192); assay: Inhibition of MLK1
Mitogen-activated protein kinase kinase kinase 9, sequence (P80192 whole entry): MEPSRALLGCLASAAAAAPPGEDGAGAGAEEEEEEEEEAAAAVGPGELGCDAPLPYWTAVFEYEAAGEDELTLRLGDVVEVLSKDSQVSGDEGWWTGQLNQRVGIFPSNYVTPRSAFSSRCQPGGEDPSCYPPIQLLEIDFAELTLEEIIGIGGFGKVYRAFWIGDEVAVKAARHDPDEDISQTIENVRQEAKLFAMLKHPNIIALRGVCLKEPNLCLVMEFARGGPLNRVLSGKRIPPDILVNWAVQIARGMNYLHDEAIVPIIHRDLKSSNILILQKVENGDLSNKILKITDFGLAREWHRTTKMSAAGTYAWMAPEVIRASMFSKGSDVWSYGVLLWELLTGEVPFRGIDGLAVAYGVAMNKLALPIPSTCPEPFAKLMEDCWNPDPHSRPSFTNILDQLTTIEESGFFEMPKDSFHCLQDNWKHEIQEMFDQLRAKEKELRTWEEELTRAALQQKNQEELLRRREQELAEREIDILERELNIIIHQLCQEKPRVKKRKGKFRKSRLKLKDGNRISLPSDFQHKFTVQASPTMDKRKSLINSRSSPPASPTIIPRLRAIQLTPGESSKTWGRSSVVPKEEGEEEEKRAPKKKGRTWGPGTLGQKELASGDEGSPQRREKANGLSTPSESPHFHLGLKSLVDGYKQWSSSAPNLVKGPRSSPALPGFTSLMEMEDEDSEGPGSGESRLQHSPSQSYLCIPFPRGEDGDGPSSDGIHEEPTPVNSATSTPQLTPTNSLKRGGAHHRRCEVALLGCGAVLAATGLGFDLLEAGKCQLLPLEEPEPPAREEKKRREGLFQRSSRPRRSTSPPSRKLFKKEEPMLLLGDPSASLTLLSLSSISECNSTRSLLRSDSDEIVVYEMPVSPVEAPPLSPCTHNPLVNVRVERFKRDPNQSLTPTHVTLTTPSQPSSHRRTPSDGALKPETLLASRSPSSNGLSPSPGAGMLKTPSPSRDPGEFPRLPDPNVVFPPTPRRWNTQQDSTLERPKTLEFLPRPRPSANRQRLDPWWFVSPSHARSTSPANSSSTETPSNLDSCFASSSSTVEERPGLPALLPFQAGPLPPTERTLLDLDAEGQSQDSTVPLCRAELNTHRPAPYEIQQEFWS

[46] = Cmax in nu/nu mouse at 5 mg/kg, po; format: ADME, organism-based; set-up: dose 5 mg/kg, route oral; conditions: in vivo
[47] = Cmax in Beagle dog at 2 mg/kg, po; format: ADME, organism-based, Canis lupus familiaris; set-up: dose 2 mg/kg, route oral; conditions: in vivo
[48] = Protein binding in rat plasma; format: ADME, cell-free; conditions: read-out: PPB (converted)

With `CC(C)(O)c1cc2nc(-c3cnc(N)nc3)nc(N3CCOCC3)c2s1` the Cmax [1] was 2200 nM, the clearance [2] was 17 mL/min/kg and the IC50 (Aurora kinase A) was over 10000 nM. It also gave an inhibition in vivo at 10 mg/kg [3] of 73%, an inhibition [4] of 65% and a fraction unbound [5] of 0.21. For the same molecule, the fraction unbound [6] was 0.27, the Vd [7] was 3 L/kg and the inhibition in vivo at 10 mg/kg (PC-3 [8]) was 89%. It also gave an AUC [9] of 63 µM·h, an inhibition [10] of 78% and an IC50 [11] of 30 nM. The bioavailability [12] was 100%, the Vd [13] was 2.8 L/kg and the inhibition [14] was “inactive”. It also gave an Activity (PC-3 [15]) of 89%, a half-life [16] of 3.6 h and an AUC [17] of 3.8 µM·h. The bioavailability [18] was 83%, the clearance [19] was 9 mL/min/kg and the AUC [20] was 21 µM·h. The Vd [21] was 2.8 L/kg, the Activity (Mus musculus [22]) was “Non-toxic” and the Activity (Mus musculus [23]) was “Non-toxic”. For the same molecule, the inhibition in vivo at 10 mg/kg (Mus musculus [24]) was 73%, the Cmax [25] was 1100 nM and the bioavailability [26] was 62%. It also gave a clearance [27] of 1.6 mL/min/kg, a clearance [28] of 15 mL/min/kg and an inhibition in vivo at 10 mg/kg (Mus musculus [29]) of 98%. The Activity (Mus musculus [30]) was “Non-toxic”, the inhibition in vivo at 10 mg/kg (Mus musculus [31]) was 80% and the bioavailability [32] was 100%. The inhibition [33] was “inactive”, the inhibition in vivo at 10 mg/kg (Mus musculus [34]) was 75% and the CLint scaled [35] was 23 mL/min/kg. The Vd [36] was 1.6 L/kg, the inhibition in vivo at 10 mg/kg (Mus musculus [37]) was 88% and the inhibition in vivo at 10 mg/kg (Mus musculus [38]) was 81%. The IC50 [39] was 371 nM, the fraction unbound [40] was 0.36 and the IC50 (PC-3 [41]) was 330 nM. For the same molecule, the AUC [42] was 14 µM·h, the Activity (PC-3 [43]) was “inactive” and the bioavailability [44] was 83%. For the same molecule, the IC50 [45] was 591 nM, the Cmax [46] was 2100 nM and the Cmax [47] was 4400 nM. For the same molecule, the fraction unbound [48] was 0.51.
